The term IC50 denotes the concentration that inhibits the measured activity by half.

The target of the assay is T1, BACE1 (Homo sapiens, UniProt P56817).
T1 construct: endogenous in cells; host or cells: HEK293 APP cells
T1 sequence (P56817 46-501): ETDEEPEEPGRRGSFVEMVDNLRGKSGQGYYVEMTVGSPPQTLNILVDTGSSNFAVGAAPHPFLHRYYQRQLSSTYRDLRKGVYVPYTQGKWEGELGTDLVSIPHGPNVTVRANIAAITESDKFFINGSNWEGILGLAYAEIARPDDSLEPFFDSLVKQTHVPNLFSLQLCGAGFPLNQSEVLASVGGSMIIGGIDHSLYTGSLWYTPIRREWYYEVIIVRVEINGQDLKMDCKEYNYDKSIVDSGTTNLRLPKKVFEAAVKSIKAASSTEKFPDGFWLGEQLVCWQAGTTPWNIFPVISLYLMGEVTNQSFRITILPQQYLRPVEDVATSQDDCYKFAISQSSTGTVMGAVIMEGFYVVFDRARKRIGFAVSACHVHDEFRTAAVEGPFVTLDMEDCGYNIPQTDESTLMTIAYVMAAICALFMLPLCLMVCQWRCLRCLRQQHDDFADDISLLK
The assay is described as follows: Cellular Aβ-lowering assay (Abeta 40 AlphaLISA, HEK293 APP cells). Format: cell-based. The note with it: 18-20 hrs incubation, Aβ 40 in culture supernatant, read-out: BACE1 cell act. Aβ40 IC50. Here is the method: Cellular Aβ-Lowering Assay:
The Abeta 40 AlphaLISA Assay can be used. The HEK293 APP cells were seeded in 96 well Microtiter plates in cell culture medium (Iscove's, plus 10% (v/v) fetal bovine serum, penicillin/streptomycin) to about 80% confluency and the compounds were added at a 3× concentration in ⅓ volume of culture medium (final DMSO concentration was kept at 1% v/v). After 18-20 hrs incubation at 37° C. and 5% CO2 in a humidified incubator, the culture supernatants were harvested for the determination of Aβ 40 concentrations using Perkin-Elmer Human Amyloid beta 1-40 (high specificity) Kit (Cat#AL275C).
In a Perkin-Elmer White Optiplate-384 (Cat#6007290), 2 ul culture supernatants were combined with 2 μl of a 10× AlphaLISA Anti-hAβAcceptor beads + Biotinylated Antibody Anti-Aβ 1-40 Mix (50 μg/mL/5 nM). After 1 hour room temperature incubation, 16 μl of a 1.25× preparation of Streptavidin (SA) Donor beads (25 μg/mL) were added and incubated for 30 minutes in the Dark. Light Emission at 615 nm was then recorded using EnVision-Alpha Reader. Levels of Aβ 40 in the culture supernatants were calculated as percentage of maximum signal (cells treated with 1% DMSO without inhibitor). The IC50 values were calculated using the Excel XLfit software.
(Alpha assays give light when donor and acceptor beads are brought close together.)
For `CN=[S@]1(=O)C[C@@](CF)(c2cc(-c3cc(-c4cnc(OC)cn4)no3)ccc2F)N=C(N)C1(C)C` [Example 2, (1S,3S)-5-amino-3-(2-fluoro-5-(3-(5-methoxypyrazin-2-yl)isoxazol-5-yl)phenyl)-3-(fluoromethyl)-6,6-dimethyl-1-(methylimino)-3,6-dihydro-2H-1,4-thiazine 1-oxide 2,2,2-trifluoroacetate], the IC50 came to 0.141 µM.
The same measure for `CN=[S@@]1(=O)C[C@@](CF)(c2cc(-c3cc(-c4ncc(Cl)cn4)no3)ccc2F)N=C(N)C1(C)C` [Example 3, (1R,3S)-5-amino-3-(5-(3-(5-chloropyrimidin-2-yl)isoxazol-5-yl)-2-fluorophenyl)-3-(fluoromethyl)-6,6-dimethyl-1-(methylimino)-3,6-dihydro-2H-1,4-thiazine 1-oxide 2,2,2-trifluoroacetate]: 0.089 µM.
For the molecule `CN=[S@@]1(=O)C[C@@](CF)(c2cc(-c3cc(-c4cnc(OCC(F)F)cn4)no3)ccc2F)N=C(N)C1(C)C` [Example 4, (1R,3S)-5-amino-3-(5-(3-(5-(2,2-difluoroethoxy)pyrazin-2-yl)isoxazol-5-yl)-2-fluorophenyl)-3-(fluoromethyl)-6,6-dimethyl-1-(methylimino)-3,6-dihydro-2H-1,4-thiazine 1-oxide 2,2,2-trifluoroacetate], the IC50 worked out at 0.111 µM.
Take `CN=[S@@]1(=O)C[C@@](C)(c2cc(-c3cc(-c4ncc(C#N)cn4)no3)ccc2F)N=C(N)C1(C)C` [Example 8, 2-(5-(3-((1R,3R)-5-amino-3,6,6-trimethyl-1-(methylimino)-1-oxido-3,6-dihydro-2H-1,4-thiazin-3-yl)-4-fluorophenyl)isoxazol-3-yl)pyrimidine-5-carbonitrile 2,2,2-trifluoroacetate]: the concentration for half-maximal inhibition (IC50) turned out to be 0.022 µM.
Regarding `CN=[S@@]1(=O)C[C@@](C)(c2cc(-c3cn(-c4ccc(Cl)cn4)nn3)ccc2F)N=C(N)C1(C)C` [Example 9, (1R,3R)-5-amino-3-(5-(1-(5-chloropyridin-2-yl)-1H-1,2,3-triazol-4-yl)-2-fluorophenyl)-3,6,6-trimethyl-1-(methylimino)-3,6-dihydro-2H-1,4-thiazine 1-oxide 2,2,2-trifluoroacetate], the IC50 amounted to 0.017 µM.
The same measure for `CN=[S@@]1(=O)C[C@@](C)(c2cc(-c3cn(-c4ccc(C#N)cn4)nn3)ccc2F)N=C(N)C1(C)C` [Example 10, 6-(4-(3-((1R,3R)-5-amino-3,6,6-trimethyl-1-(methylimino)-1-oxido-3,6-dihydro-2H-1,4-thiazin-3-yl)-4-fluorophenyl)-1H-1,2,3-triazol-1-yl)nicotinonitrile 2,2,2-trifluoroacetate]: 0.02 µM; for `CN=[S@]1(=O)C[C@@](C)(c2cc(-c3cc(-c4cnc(OCC(F)F)cn4)no3)ccc2F)N=C(N)C1(C)C` [Example 11, (1S,3R)-5-amino-3-(5-(3-(5-(2,2-difluoroethoxy)pyrazin-2-yl)isoxazol-5-yl)-2-fluorophenyl)-3,6,6-trimethyl-1-(methylimino)-3,6-dihydro-2H-1,4-thiazine 1-oxide 2,2,2-trifluoroacetate]: 0.051 µM.
The same measure for `CN=[S@]1(=O)C[C@@](C)(c2cc(-c3cc(-c4ncc(Cl)cn4)no3)ccc2F)N=C(N)C1(C)C` [Example 12, (1S,3R)-5-amino-3-(5-(3-(5-chloropyrimidin-2-yl)isoxazol-5-yl)-2-fluorophenyl)-3,6,6-trimethyl-1-(methylimino)-3,6-dihydro-2H-1,4-thiazine 1-oxide 2,2,2-trifluoroacetate]: 0.019 µM; for `CN=[S@]1(=O)C[C@@](CF)(c2cc(-c3cc(-c4ncc(OC)cn4)no3)ccc2F)N=C(N)C1(C)C` [Example 13, (1S,3S)-5-amino-3-(2-fluoro-5-(3-(5-methoxypyrimidin-2-yl)isoxazol-5-yl)phenyl)-3-(fluoromethyl)-6,6-dimethyl-1-(methylimino)-3,6-dihydro-2H-1,4-thiazine 1-oxide]: 0.106 µM; for `CN=[S@@]1(=O)C[C@@](CF)(c2cc(-c3cn(-c4ccc(C#N)cn4)nn3)ccc2F)N=C(N)C1(C)C` [Example 14, 6-(4-(3-((1R,3S)-5-amino-3-(fluoromethyl)-6,6-dimethyl-1-(methylimino)-1-oxido-3,6-dihydro-2H-1,4-thiazin-3-yl)-4-fluorophenyl)-1H-1,2,3-triazol-1-yl)nicotinonitrile 2,2,2-trifluoroacetate]: 0.103 µM.
Under `CN=[S@@]1(=O)C[C@@](CF)(c2cc(-c3cc(-c4ncc(Br)cc4C)no3)ccc2F)N=C(N)C1(C)C` [Example 15, (1R,3S)-5-amino-3-(5-(3-(5-bromo-3-methylpyridin-2-yl)isoxazol-5-yl)-2-fluorophenyl)-3-(fluoromethyl)-6,6-dimethyl-1-(methylimino)-3,6-dihydro-2H-1,4-thiazine 1-oxide 2,2,2-trifluoroacetate] stands 0.344 µM.
Regarding `CN=[S@@]1(=O)C[C@@](CF)(c2cc(-c3cn(-c4ccc(Cl)cn4)nn3)ccc2F)N=C(N)C1(C)C` [Example 16, (1R,3S)-5-amino-3-(5-(1-(5-chloropyridin-2-yl)-1H-1,2,3-triazol-4-yl)-2-fluorophenyl)-3-(fluoromethyl)-6,6-dimethyl-1-(methylimino)-3,6-dihydro-2H-1,4-thiazine 1-oxide 2,2,2-trifluoroacetate], the half-inhibitory concentration (IC50) turned out to be 0.156 µM.
Turning to `CN=[S@@]1(=O)C[C@@](CF)(c2cc(-c3cc(-c4ncc(OC)cn4)no3)ccc2F)N=C(N)C1(C)C` [Example 17, (1R,3S)-3-[2-fluoro-5-[3-(5-methoxypyrimidin-2-yl)isoxazol-5-yl]phenyl]-3-(fluoromethyl)-6,6-dimethyl-1-methylimino-1-oxo-2H-1,4-thiazin-5-amine], the 50% inhibitory concentration (IC50) came out at 0.119 µM.
With `CN=[S@@]1(=O)C[C@@](C)(c2cc(-c3cc(-c4ncc(OCC(F)F)cn4)no3)ccc2F)N=C(N)C1(C)C` [Example 18, (1R,3R)-3-[5-[3-[5-(2,2-difluoroethoxy)pyrimidin-2-yl]isoxazol-5-yl]-2-fluoro-phenyl]-3,6,6-trimethyl-1-methylimino-1-oxo-2H-1,4-thiazin-5-amine], the IC50 came out at 0.013 µM.
As to `CN=[S@]1(=O)C[C@@](C)(c2cc(-c3cc(-c4ncc(OCC(F)F)cn4)no3)ccc2F)N=C(N)C1(C)C` [Example 19, (1S,3R)-3-[5-[3-[5-(2,2-difluoroethoxy)pyrimidin-2-yl]isoxazol-5-yl]-2-fluoro-phenyl]-3,6,6-trimethyl-1-methylimino-1-oxo-2H-1,4-thiazin-5-amine], the IC50 amounted to 0.027 µM.
Consider `CN=[S@@]1(=O)C[C@@](C)(c2cc(-c3cc(-c4ncc(OC)cn4)no3)ccc2F)N=C(N)C1(C)C` [Example 20, (1R,3R)-5-amino-3-(2-fluoro-5-(3-(5-methoxypyrimidin-2-yl)isoxazol-5-yl)phenyl)-3,6,6-trimethyl-1-(methylimino)-3,6-dihydro-2H-1,4-thiazine 1-oxide], for which the IC50 came to 0.003 µM.
The same measure for `CN=[S@@]1(=O)C[C@@](C)(c2cc(-c3cc(-c4cnc(OCC(F)(F)F)cn4)no3)ccc2F)N=C(N)C1(C)C` [Example 21, (1R,3R)-5-amino-3-(2-fluoro-5-(3-(5-(2,2,2-trifluoroethoxy)pyrazin-2-yl)isoxazol-5-yl)phenyl)-3,6,6-trimethyl-1-(methylimino)-3,6-dihydro-2H-1,4-thiazine 1-oxide 2,2,2-trifluoroacetate]: 0.009 µM; for `CN=[S@@]1(=O)C[C@@](C)(c2cc(-c3cc(-c4cnc(OCC5CC5)cn4)no3)ccc2F)N=C(N)C1(C)C` [Example 22, (1R,3R)-5-amino-3-(5-(3-(5-(cyclopropylmethoxy)pyrazin-2-yl)isoxazol-5-yl)-2-fluorophenyl)-3,6,6-trimethyl-1-(methylimino)-3,6-dihydro-2H-1,4-thiazine 1-oxide]: 0.061 µM; for `CN=[S@@]1(=O)C[C@@](C)(c2cc(-c3cc(-c4cnc(O)cn4)no3)ccc2F)N=C(N)C1(C)C` [Example 23, (1R,3R)-5-amino-3-(2-fluoro-5-(3-(5-hydroxypyrazin-2-yl)isoxazol-5-yl)phenyl)-3,6,6-trimethyl-1-(methylimino)-3,6-dihydro-2H-1,4-thiazine 1-oxide]: over 1 µM.
The same measure for `[2H]C([2H])([2H])N=[S@@]1(=O)C[C@@](C)(c2cc(-c3cc(-c4ncc(OCC(F)(F)C(F)F)cn4)no3)ccc2F)N=C(N)C1(C)C` [Example 25, (1R,3R)-3-[2-fluoro-5-[3-[5-(2,2,3,3-tetrafluoropropoxy)pyrimidin-2-yl]isoxazol-5-yl]phenyl]-3,6,6-trimethyl-1-oxo-1-(trideuteriomethylimino)-2H-1,4-thiazin-5-amine 2,2,2-trifluoroacetate]: 0.013 µM.
The same measure for `[2H]C([2H])([2H])N=[S@@]1(=O)C[C@@](C)(c2cc(-c3cc(-c4ncc(CC)cn4)no3)ccc2F)N=C(N)C1(C)C` [Example 26, (1R,3R)-3-[5-[3-(5-ethylpyrimidin-2-yl)isoxazol-5-yl]-2-fluoro-phenyl]-3,6,6-trimethyl-1-oxo-1-(trideuteriomethylimino)-2H-1,4-thiazin-5-amine 2,2,2-trifluoroacetate]: 0.037 µM.

The record behind these values is patent US10047081B2, “BACE1 inhibitors” (Hoffmann-La Roche Inc., priority 2015, dated 2018).
